Results on one compound are retold here after patent US11173160B2 (UNIVERSITY OF PITTSBURGH—OF THE COMMONWEALTH SYSTEM OF …, priority 2019, dated 2021).

Assay [1] relates to DIPG-IV cells overexpressing ERK5 and constitutively active ERK5. The experiment in a line: EC50 of TG02 in DIPG-IV cells expressing ERK5-HA or ERK5-HA T733E. The format is cell-based, human. The procedure:
(§1) Direct cell counts were performed using the Countess II FL Automated Cell Counter (ThermoFisher Scientific). Alamar blue viability (ThermoFisher Scientific) and the 5-bromo-2′-deoxyuridine (BrdU) incorporated cell proliferation assay (Cell Signaling Technology Cat #6813) were performed using the manufacturer's standard protocol. EC50 curve analysis was performed using raw fluorescent Alamar blue values that were inputted into PRISM 7.0. Drug concentrations were log 10 transformed and values normalized to percent viability with respect to vehicle treated cells. EC50 values were interpolated from a log inhibitor vs. normalized response with variable slope using a least square fit model.

Assay [2] deals with DIPG-007, DIPG-IV, and SF8628 cells. The experiment in a line: direct Trypan-Blue automated cell count. The format is cell-based, human. The settings on record: 50 nM of TG02, 9 days of treatment, vs vehicle. On the procedure: (§2) FIGS. 5A-5K provide that pharmacological inhibition of ERK5 triggered cell death and apoptosis in DIPG cells. […] (5C-5E).
as §1

For assay [3], the system named is DIPG-007 and DIPG-IV cells. Put plainly: Annexin-PI flow cytometry apoptosis assay. The assay is classed as cell-based, human. The following applies: 48 h, vs DMSO vehicle control. The procedure: as §2
Apoptosis was quantified using the Pacific Blue Annexin V Apoptosis Detection Kit with propidium iodide (BioLegend, San Diego, Calif. Cat #640926). Analysis was performed at the Flow Cytometry Core, Rangos Research Center, UPMC Children's Hospital of Pittsburgh.

Assay [4] relates to DIPG-13p orthotopic xenografts. The experiment in a line: DIPG-13p orthotopic xenograft model. The assay is classed as in vivo, mice. The settings on record: for survival vs vehicle: 20 mg/kg/day for 5 days, 2 days rest. The procedure: All animal procedures were carried out ethically according to animal user protocols approved by Institutional Animal Care Committee (IACUC). 4-6 week-old non-obese diabetic severe combined immune deficiency male or female mice (NOD-SCID-Prkdc^scid) were injected with 1×10^5 SU-DIPG-13p cells or 1×10^5 SF8628 DIPG cells. Cells were re-suspended in 2 μl of PBS and injected into the pons/midbrain using a stereotactic frame (Stoelting) and automated cell injector (Stoelting) with cells delivered over 4 minutes. Coordinates were as follows from the Lambda suture (x=0.8 mm, y=−0.8 mm, z=−5.0 mm). […] Mice were treated for two cycles (5 days on, with two days off per cycle). Mice were sacrificed at sign of neurological duress and brains were extracted and fixed in 4% PFA.
Also, the present disclosure used two established cell lines derived from transgenic mouse models of DIPG. Both lines are p53 null and express PDGFB, differing only in their H3.3 mutation status.
In a second DIPG mouse model, mice were injected with 1×10^5 DIPG13p cells in the midbrain of NOD-SCID gamma mice.
For each cycle, the compounds were administered 20 mg/kg/day for 5 days, followed with 2 days of rest period. Each mice received 2 cycles of treatment.

The target of a further assay is Fms (Homo sapiens, UniProt P07333). The following applies: Source Millipore; 10-point titration in duplicates, done once; cited from earlier work.
In the next assay the target is Chk1 (Homo sapiens, UniProt O14757). The following applies: cited from earlier work.
A further assay addresses EGFR (Homo sapiens, UniProt P00533). The settings on record: cited from earlier work.
The target of another assay is JAK3 (Homo sapiens, UniProt P52333). The following applies: cited from earlier work.

pEC50, pIC50: −log10 of the molar value. “Also recorded” adds a separate entry of the source. Some results are limits rather than exact numbers.

Chain of Chk1 (O14757 whole entry): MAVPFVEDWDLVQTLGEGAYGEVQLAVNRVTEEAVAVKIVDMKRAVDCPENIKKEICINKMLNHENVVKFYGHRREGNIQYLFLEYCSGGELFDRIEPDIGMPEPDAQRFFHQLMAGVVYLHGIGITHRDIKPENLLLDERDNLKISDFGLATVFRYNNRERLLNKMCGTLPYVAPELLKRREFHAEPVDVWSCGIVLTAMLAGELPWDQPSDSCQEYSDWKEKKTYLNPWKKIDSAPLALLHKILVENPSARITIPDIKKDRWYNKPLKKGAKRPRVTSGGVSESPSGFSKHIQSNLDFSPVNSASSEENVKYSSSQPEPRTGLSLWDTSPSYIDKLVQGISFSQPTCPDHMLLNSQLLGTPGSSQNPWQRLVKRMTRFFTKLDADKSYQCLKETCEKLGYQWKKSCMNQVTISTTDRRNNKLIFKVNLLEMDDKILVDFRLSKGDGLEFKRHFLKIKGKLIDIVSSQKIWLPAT
Chain of JAK3 (P52333 whole entry): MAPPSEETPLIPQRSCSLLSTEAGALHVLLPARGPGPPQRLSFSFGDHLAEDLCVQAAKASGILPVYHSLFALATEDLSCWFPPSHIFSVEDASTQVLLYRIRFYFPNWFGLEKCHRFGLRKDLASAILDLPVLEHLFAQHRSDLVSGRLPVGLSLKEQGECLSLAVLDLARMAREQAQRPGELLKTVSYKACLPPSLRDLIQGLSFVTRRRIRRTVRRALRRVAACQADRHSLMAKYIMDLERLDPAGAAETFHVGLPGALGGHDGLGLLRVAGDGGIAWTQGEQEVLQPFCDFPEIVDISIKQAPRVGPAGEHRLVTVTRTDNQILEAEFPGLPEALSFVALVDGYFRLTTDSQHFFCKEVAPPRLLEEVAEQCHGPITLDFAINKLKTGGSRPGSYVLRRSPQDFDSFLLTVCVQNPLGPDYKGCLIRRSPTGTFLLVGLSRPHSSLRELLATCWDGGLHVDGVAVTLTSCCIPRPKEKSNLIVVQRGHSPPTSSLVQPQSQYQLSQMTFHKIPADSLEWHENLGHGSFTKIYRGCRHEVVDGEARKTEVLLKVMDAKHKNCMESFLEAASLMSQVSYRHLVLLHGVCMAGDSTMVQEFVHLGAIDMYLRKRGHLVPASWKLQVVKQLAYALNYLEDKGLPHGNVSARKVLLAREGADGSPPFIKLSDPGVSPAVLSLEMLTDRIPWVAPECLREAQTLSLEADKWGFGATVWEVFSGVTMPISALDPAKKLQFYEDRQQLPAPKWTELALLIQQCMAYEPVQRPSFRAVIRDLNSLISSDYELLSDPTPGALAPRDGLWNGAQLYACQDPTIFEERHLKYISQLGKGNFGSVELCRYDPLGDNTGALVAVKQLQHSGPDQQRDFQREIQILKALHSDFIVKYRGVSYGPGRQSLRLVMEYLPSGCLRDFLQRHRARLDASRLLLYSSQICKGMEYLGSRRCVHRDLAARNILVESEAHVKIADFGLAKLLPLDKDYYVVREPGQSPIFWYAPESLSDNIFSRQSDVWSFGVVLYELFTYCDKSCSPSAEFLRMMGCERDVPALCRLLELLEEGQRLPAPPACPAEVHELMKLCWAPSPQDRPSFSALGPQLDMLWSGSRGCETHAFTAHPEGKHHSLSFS
Chain of Fms (P07333 20-972): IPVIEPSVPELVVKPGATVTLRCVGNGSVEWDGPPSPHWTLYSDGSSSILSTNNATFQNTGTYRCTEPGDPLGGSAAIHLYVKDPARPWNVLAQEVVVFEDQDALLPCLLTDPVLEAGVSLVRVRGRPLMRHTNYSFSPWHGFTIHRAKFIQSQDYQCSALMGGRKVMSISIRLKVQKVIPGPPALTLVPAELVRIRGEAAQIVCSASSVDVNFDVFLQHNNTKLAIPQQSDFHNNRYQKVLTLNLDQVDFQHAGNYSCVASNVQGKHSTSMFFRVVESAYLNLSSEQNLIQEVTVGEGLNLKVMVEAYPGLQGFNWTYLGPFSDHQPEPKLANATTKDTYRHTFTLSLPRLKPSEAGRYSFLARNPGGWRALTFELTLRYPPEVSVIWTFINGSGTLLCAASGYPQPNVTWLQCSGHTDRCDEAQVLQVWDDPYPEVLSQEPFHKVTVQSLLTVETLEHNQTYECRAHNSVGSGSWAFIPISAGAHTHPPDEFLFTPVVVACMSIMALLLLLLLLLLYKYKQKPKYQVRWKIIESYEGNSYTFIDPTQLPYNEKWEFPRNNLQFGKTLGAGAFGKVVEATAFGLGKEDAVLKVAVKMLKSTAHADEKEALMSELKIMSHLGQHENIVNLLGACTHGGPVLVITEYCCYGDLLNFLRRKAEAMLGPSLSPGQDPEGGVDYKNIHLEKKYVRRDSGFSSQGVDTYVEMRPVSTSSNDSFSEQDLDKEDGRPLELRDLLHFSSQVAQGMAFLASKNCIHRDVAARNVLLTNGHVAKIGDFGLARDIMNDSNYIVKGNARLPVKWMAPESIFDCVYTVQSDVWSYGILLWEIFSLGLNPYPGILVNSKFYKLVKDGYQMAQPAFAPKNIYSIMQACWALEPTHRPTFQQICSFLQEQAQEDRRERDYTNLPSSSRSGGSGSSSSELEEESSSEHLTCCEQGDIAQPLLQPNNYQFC
Chain of EGFR (P00533 25-1210): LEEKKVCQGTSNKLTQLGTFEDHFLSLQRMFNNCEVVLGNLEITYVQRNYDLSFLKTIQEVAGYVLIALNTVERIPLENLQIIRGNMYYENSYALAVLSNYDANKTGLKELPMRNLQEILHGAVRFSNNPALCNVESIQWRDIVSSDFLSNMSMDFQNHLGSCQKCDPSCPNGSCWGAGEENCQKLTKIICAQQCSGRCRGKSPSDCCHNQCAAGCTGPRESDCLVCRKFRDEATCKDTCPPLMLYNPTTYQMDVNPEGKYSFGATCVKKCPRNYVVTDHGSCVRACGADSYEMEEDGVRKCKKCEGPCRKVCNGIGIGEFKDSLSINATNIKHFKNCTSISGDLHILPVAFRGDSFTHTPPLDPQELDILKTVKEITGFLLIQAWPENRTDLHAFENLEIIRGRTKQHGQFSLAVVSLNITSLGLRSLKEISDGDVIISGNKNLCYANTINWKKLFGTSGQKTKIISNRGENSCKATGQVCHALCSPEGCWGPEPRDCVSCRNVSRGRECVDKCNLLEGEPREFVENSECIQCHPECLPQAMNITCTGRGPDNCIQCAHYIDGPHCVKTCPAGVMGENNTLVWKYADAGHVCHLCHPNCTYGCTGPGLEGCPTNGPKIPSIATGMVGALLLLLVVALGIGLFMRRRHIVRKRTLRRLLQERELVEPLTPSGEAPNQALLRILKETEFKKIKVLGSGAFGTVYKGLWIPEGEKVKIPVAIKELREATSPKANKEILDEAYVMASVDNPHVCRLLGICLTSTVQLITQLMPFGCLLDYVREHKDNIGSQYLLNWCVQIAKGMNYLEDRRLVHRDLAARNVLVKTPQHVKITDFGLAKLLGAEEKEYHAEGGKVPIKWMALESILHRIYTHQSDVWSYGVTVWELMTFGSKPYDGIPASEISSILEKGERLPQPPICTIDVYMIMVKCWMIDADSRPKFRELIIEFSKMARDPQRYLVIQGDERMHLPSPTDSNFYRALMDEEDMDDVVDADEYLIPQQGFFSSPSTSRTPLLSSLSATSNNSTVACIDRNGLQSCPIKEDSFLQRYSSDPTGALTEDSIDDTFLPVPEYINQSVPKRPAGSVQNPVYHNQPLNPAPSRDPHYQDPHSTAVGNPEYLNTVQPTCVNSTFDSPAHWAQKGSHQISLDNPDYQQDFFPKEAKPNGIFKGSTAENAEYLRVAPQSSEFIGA

Broadly, the pEC50 is the negative decadic logarithm of the EC50, by convention in mol/L. By pIC50 is commonly meant −log10 of the IC50, conventionally taken in molar units. As to `CN1C/C=C/CCOc2cccc(c2)-c2ccnc(n2)Nc2cccc(c2)C1` [TG02, (16E)-14-methyl-20-oxa-5,7,14,27-tetraazatetracyclo[19.3.1.12,6.18,12]heptacosa-1(25),2(27),3,5,8(26),9,11,16,21,23-decaene], in assay [1] (Homo sapiens, read-out: EC50 to treatment with TG02, overexpression of ERK5 and constitutively active ERK in DIPG-IV cells), the pEC50 is less than 6.00. Also, the “cleaved Caspase 3/7 levels” value in assay [1] (TG02 100 nM, ERK5-HA or ERK5-HA T733E vs empty vector) is given as “reduced cleaved Caspase 3/7 levels”. For the same compound, the cell number entry in assay [2] is given as “significant decreases in cell number”. In assay [3], the “apoptosis (Annexin-PI)” value is “significantly higher rates of apoptosis; also recorded: increased populations in early apoptosis”. In addition, the “viable cells (Annexin negative, PI negative)” value in assay [3] is “decreased viable cells”. Further, the “K167 expression (proliferation marker)” value in assay [4] (20 mg/kg, 2 cycles, vs vehicle) is listed as “significantly reduced K167 expression”. Further, the survival vs vehicle result in assay [4] (2 cycles) is given as “statistically significant increased median survival”; in assay [4] (2 cycles, listed as TG02 obtained from Adastra Pharmaceuticals), “extended survival”. For the same compound, the median survival in assay [4] (TG02 20 mg/kg, 2 cycles of 5 days on 2 days off, vehicle 22.5 days) stood at 40 days. At Fms, the pIC50 is 7.57. In addition, the “inhibition at 100 nm” value at Chk1, at EGFR and on JAK3 was “less than 50%” each time.
